Data from ChEMBL document CHEMBL4145540 (Eur J Med Chem, 2018).

Experiments:
[1] = system: HMEC-1; assay: Antiproliferative activity against HMEC1 cells after 2 days by MTT assay; type: functional, cell-based; settings: Homo sapiens, HMEC-1, 48 h
[2] = system: HT-29; assay: Antiproliferative activity against human HT-29 cells after 2 days by MTT assay; type: functional, cell-based; settings: HT-29, 48 h
[3] = system: A549; assay: Cell cycle arrest in human A549 cells assessed as accumulation at sub-G0 phase at 650 nM after 20 hrs by propidium iodide staining based flow cytometry (reference value: 6.6 +/- 0.1%); type: functional
[4] = system: A549; assay: Cell cycle arrest in human A549 cells assessed as accumulation at G2/M phase at 650 nM after 20 hrs by propidium iodide staining based flow cytometry (reference value: 11 +/- 1%); type: functional
[5] = system: A549; assay: Antiproliferative activity against human A549 cells after 2 days by MTT assay; type: functional, cell-based; settings: A549, 48 h
[6] = system: HL-60; assay: Antiproliferative activity against human HL60 cells after 2 days by MTT assay; type: functional, cell-based; settings: HL-60, 48 h
[7] = system: HEK293; assay: Antiproliferative activity against HEK293 cells after 2 days by MTT assay; type: cell-based; settings: Homo sapiens, HEK293, 48 h
[8] = system: MDA-MB-231; assay: Antiproliferative activity against human MDA-MB-231 cells after 3 days by coulter counting method; type: functional, cell-based; settings: MDA-MB-231, 72 h
[9] = system: A549; assay: Cell cycle arrest in human A549 cells assessed as accumulation at S phase at 650 nM after 20 hrs by propidium iodide staining based flow cytometry (reference value: 16 +/- 1%); type: functional
[10] = system: MCF7; assay: Antiproliferative activity against human MCF7 cells after 2 days by MTT assay; type: functional, cell-based; settings: MCF7, 48 h
[11] = system: HeLa; assay: Antiproliferative activity against human HeLa cells after 2 days by MTT assay; type: functional, cell-based; settings: 48 h
[12] = system: A549; assay: Cell cycle arrest in human A549 cells assessed as accumulation at G0/G1 phase at 650 nM after 20 hrs by propidium iodide staining based flow cytometry (reference value: 66 +/- 1%); type: functional
[13] = system: A549; assay: Cell cycle arrest in human A549 cells assessed as accumulation at S phase at 450 nM after 20 hrs by propidium iodide staining based flow cytometry (reference value: 16 +/- 1%); type: functional
[14] = system: A549; assay: Cell cycle arrest in human A549 cells assessed as accumulation at G0/G1 phase at 450 nM after 20 hrs by propidium iodide staining based flow cytometry (reference value: 66 +/- 1%); type: functional
[15] = system: A549; assay: Cell cycle arrest in human A549 cells assessed as accumulation at sub-G0 phase at 450 nM after 20 hrs by propidium iodide staining based flow cytometry (reference value: 6.6 +/- 0.1%); type: functional
[16] = system: A549; assay: Cell cycle arrest in human A549 cells assessed as accumulation at G2/M phase at 450 nM after 20 hrs by propidium iodide staining based flow cytometry (reference value: 11 +/- 1%); type: functional
[17] = system: A549; assay: Cell cycle arrest in human A549 cells assessed as accumulation at S phase at 750 nM after 20 hrs by propidium iodide staining based flow cytometry (reference value: 16 +/- 1%); type: functional
[18] = system: A549; assay: Cell cycle arrest in human A549 cells assessed as accumulation at G2/M phase at 750 nM after 20 hrs by propidium iodide staining based flow cytometry (reference value: 11 +/- 1%); type: functional
[19] = system: A549; assay: Cell cycle arrest in human A549 cells assessed as accumulation at sub-G0 phase at 750 nM after 20 hrs by propidium iodide staining based flow cytometry (reference value: 6.6 +/- 0.1%); type: functional
[20] = system: A549; assay: Cell cycle arrest in human A549 cells assessed as accumulation at G0/G1 phase at 750 nM after 20 hrs by propidium iodide staining based flow cytometry (reference value: 66 +/- 1%); type: functional
[21] = Selectivity index, ratio of IC50 for antiproliferative activity against HEK293 cells to IC50 for antiproliferative activity against human MCF7 cells; type: toxicity, cell-based; settings: HEK293 cells versus MCF7 cells, read-out: Ratio IC50
[22] = system: A549; assay: Cell cycle arrest in human A549 cells assessed as accumulation at S phase at 135 nM after 20 hrs by propidium iodide staining based flow cytometry (reference value: 16 +/- 1%); type: functional
[23] = Selectivity index, ratio of IC50 for antiproliferative activity against HEK293 cells to IC50 for antiproliferative activity against human HL60 cells; type: toxicity, cell-based; settings: HEK293 cells versus HL60 cells, read-out: Ratio IC50
[24] = Selectivity index, ratio of IC50 for antiproliferative activity against HEK293 cells to IC50 for antiproliferative activity against human HeLa cells; type: toxicity, cell-based; settings: HEK293 cells versus HeLa cells, read-out: Ratio IC50
[25] = system: A549; assay: Cell cycle arrest in human A549 cells assessed as accumulation at G2/M phase at 135 nM after 20 hrs by propidium iodide staining based flow cytometry (reference value: 11 +/- 1%); type: functional
[26] = system: A549; assay: Cell cycle arrest in human A549 cells assessed as accumulation at sub-G0 phase at 135 nM after 20 hrs by propidium iodide staining based flow cytometry (reference value: 6.6 +/- 0.1%); type: functional
[27] = Selectivity index, ratio of IC50 for antiproliferative activity against HEK293 cells to IC50 for antiproliferative activity against human HT-29 cells; type: toxicity, cell-based; settings: HEK293 cells versus HT-29 cells, read-out: Ratio IC50
[28] = system: A549; assay: Cell cycle arrest in human A549 cells assessed as accumulation at G0/G1 phase at 135 nM after 20 hrs by propidium iodide staining based flow cytometry (reference value: 66 +/- 1%); type: functional
[29] = system: A549; assay: Cell cycle arrest in human A549 cells assessed as accumulation at sub-G0 phase at 2000 nM after 20 hrs by propidium iodide staining based flow cytometry (reference value: 6.6 +/- 0.1%); type: functional
[30] = system: A549; assay: Cell cycle arrest in human A549 cells assessed as accumulation at G2/M phase at 2000 nM after 20 hrs by propidium iodide staining based flow cytometry (reference value: 11 +/- 1%); type: functional
[31] = system: A549; assay: Cell cycle arrest in human A549 cells assessed as accumulation at G0/G1 phase at 2000 nM after 20 hrs by propidium iodide staining based flow cytometry (reference value: 66 +/- 1%); type: functional

| Compound | IC50 [2] [nM] | IC50 [5] [nM] | IC50 [6] [nM] | IC50 [8] [nM] | IC50 [10] [nM] | IC50 [11] [nM] | IC50 [1] [nM] | IC50 [7] [nM] | also measured |
| --- | --- | --- | --- | --- | --- | --- | --- | --- | --- |
| COc1ccc(/C=C\c2cc(OC)c(OC)c(OC)c2)cc1NC(=O)Oc1cccc(C)c1C | 175 | 900 | 59 | 66 | 16 | 40 | 140 | 80 | Activity [13]: 22%; Activity [14]: 24%; Activity [15]: 12%; Activity [16]: 42% |
| COc1ccc(/C=C\c2cc(OC)c(OC)c(OC)c2)cc1NC(=O)Oc1c(C)cccc1C | 600 | 3900 | 470 | 76 | 440 | 320 | 380 | 490 | Activity [29]: 23%; Activity [30]: 35%; Activity [31]: 25% |

Now from value to compound, other results behind:

| IC50 [2] [nM] | IC50 [5] [nM] | IC50 [6] [nM] | IC50 [8] [nM] | IC50 [10] [nM] | IC50 [11] [nM] | Compound | IC50 [1] [nM] | IC50 [7] [nM] | also measured |
| --- | --- | --- | --- | --- | --- | --- | --- | --- | --- |
| 130 | 1300 | 69 | 41 | 170 | 21 | COc1ccc(/C=C\c2cc(OC)c(OC)c(OC)c2)cc1NC(=O)Oc1ccc(C)c(C)c1 | 130 | 97 | Activity [3]: 17%; Activity [4]: 41%; Activity [9]: 19%; Activity [12]: 24% |
| 270 | 1500 | 52 | 14 | 200 | 370 | COc1ccc(/C=C\c2cc(OC)c(OC)c(OC)c2)cc1NC(=O)Oc1ccc(C)cc1 | 160 | 144 | Activity [17]: 16%; Activity [18]: 32%; Activity [19]: 27%; Activity [20]: 24% |
| 27.6 | 270 | 40 | 21.5 | 9.2 | 21 | COc1ccc(/C=C\c2cc(OC)c(OC)c(OC)c2)cc1NC(=O)Oc1ccc(C(F)(F)F)cc1 | 30 | 57 | selectivity ratio [21]: 2 to 11; Activity [22]: 14%; selectivity ratio [23]: 2 to 11; selectivity ratio [24]: 2 to 11; Activity [25]: 39%; Activity [26]: 26%; selectivity ratio [27]: 2 to 11; Activity [28]: 22% |
